Test results from PubChem BioAssay (NCI).
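Briefly, cells in 96-well plates were exposed to five compound concentrations for 48 h, and endpoints were estimated by linear interpolation. TGI: concentration producing complete growth inhibition.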

How the values were obtained:
Experiment in all cases: growth of human tumour cells (NCI), 48 h
786-0 renal = test system: 786-0 renal
A498 renal = test system: A498 renal
A549 NSCLC = test system: A549 NSCLC
ACHN renal = test system: ACHN renal
CAKI-1 renal = test system: CAKI-1 renal
CCRF-CEM leukemia = test system: CCRF-CEM leukemia
COLO 205 colon = test system: COLO 205 colon
DU-145 prostate = test system: DU-145 prostate
EKVX NSCLC = test system: EKVX NSCLC
HCC-2998 colon = test system: HCC-2998 colon
HCT-116 colon = test system: HCT-116 colon
HCT-15 colon = test system: HCT-15 colon
HL-60(TB) leukemia = test system: HL-60(TB) leukemia
HOP-62 NSCLC = test system: HOP-62 NSCLC
HOP-92 NSCLC = test system: HOP-92 NSCLC
HS 578T breast = test system: HS 578T breast
HT29 colon = test system: HT29 colon
K-562 leukemia = test system: K-562 leukemia
KM12 colon = test system: KM12 colon
LOX IMVI melanoma = test system: LOX IMVI melanoma
M14 melanoma = test system: M14 melanoma
MALME-3M melanoma = test system: MALME-3M melanoma
MCF7 breast = test system: MCF7 breast
MDA-MB-231 breast = test system: MDA-MB-231 breast
MDA-MB-435 = test system: MDA-MB-435
MDA-N = test system: MDA-N
MOLT-4 leukemia = test system: MOLT-4 leukemia
NCI-H226 lung = test system: NCI-H226 lung
NCI-H23 lung = test system: NCI-H23 lung
NCI-H460 lung = test system: NCI-H460 lung
NCI-H522 lung = test system: NCI-H522 lung
NCI/ADR-RES ovarian = test system: NCI/ADR-RES ovarian
OVCAR-3 ovarian = test system: OVCAR-3 ovarian
OVCAR-4 ovarian = test system: OVCAR-4 ovarian
OVCAR-5 ovarian = test system: OVCAR-5 ovarian
OVCAR-8 ovarian = test system: OVCAR-8 ovarian
PC-3 prostate = test system: PC-3 prostate
RPMI-8226 leukemia = test system: RPMI-8226 leukemia
SF-268 CNS = test system: SF-268 CNS
SF-295 CNS = test system: SF-295 CNS
SF-539 CNS = test system: SF-539 CNS
SK-MEL-2 melanoma = test system: SK-MEL-2 melanoma
SK-MEL-28 melanoma = test system: SK-MEL-28 melanoma
SK-MEL-5 melanoma = test system: SK-MEL-5 melanoma
SK-OV-3 ovarian = test system: SK-OV-3 ovarian
SN12C renal = test system: SN12C renal
SNB-19 CNS = test system: SNB-19 CNS
SNB-75 CNS = test system: SNB-75 CNS
SW-620 colon = test system: SW-620 colon
T-47D breast = test system: T-47D breast
TK-10 renal = test system: TK-10 renal
U251 CNS = test system: U251 CNS
UACC-257 melanoma = test system: UACC-257 melanoma
UACC-62 melanoma = test system: UACC-62 melanoma
UO-31 renal = test system: UO-31 renal
BT-549 breast = test system: BT-549 breast
IGROV1 ovarian = test system: IGROV1 ovarian

`COc1ccc(N(CN2C(=O)CCC2C(=O)O)C(C)=O)cc1` (centres undefined) was tested, and the TGI (786-0 renal) was > 100 µM, the TGI (A498 renal) was > 100 µM and the TGI (A549 NSCLC) was > 100 µM. For the same compound, the TGI (ACHN renal) was > 100 µM, the TGI (CAKI-1 renal) was > 100 µM and the TGI (CCRF-CEM leukemia) was > 100 µM. For the same compound, the TGI (COLO 205 colon) was > 100 µM, the TGI (DU-145 prostate) was > 100 µM and the TGI (EKVX NSCLC) was > 100 µM. The TGI (HCC-2998 colon) was > 100 µM, the TGI (HCT-116 colon) was > 100 µM and the TGI (HCT-15 colon) was > 100 µM. For the same compound, the TGI (HL-60(TB) leukemia) was > 100 µM, the TGI (HOP-62 NSCLC) was > 100 µM and the TGI (HOP-92 NSCLC) was > 100 µM. The TGI (HS 578T breast) was > 100 µM, the TGI (HT29 colon) was > 100 µM and the TGI (K-562 leukemia) was > 100 µM. The TGI (KM12 colon) was > 100 µM, the TGI (LOX IMVI melanoma) was > 100 µM and the TGI (M14 melanoma) was > 100 µM. The TGI (MALME-3M melanoma) was > 100 µM, the TGI (MCF7 breast) was > 100 µM and the TGI (MDA-MB-231 breast) was > 100 µM. The TGI (MDA-MB-435) was > 100 µM, the TGI (MDA-N) was > 100 µM and the TGI (MOLT-4 leukemia) was > 100 µM. For the same compound, the TGI (NCI-H226 lung) was > 100 µM, the TGI (NCI-H23 lung) was > 100 µM and the TGI (NCI-H460 lung) was > 100 µM. The TGI (NCI-H522 lung) was > 100 µM, the TGI (NCI/ADR-RES ovarian) was > 100 µM and the TGI (OVCAR-3 ovarian) was > 100 µM. For the same compound, the TGI (OVCAR-4 ovarian) was > 100 µM, the TGI (OVCAR-5 ovarian) was > 100 µM and the TGI (OVCAR-8 ovarian) was > 100 µM. The TGI (PC-3 prostate) was > 100 µM, the TGI (RPMI-8226 leukemia) was > 100 µM and the TGI (SF-268 CNS) was > 100 µM. For the same compound, the TGI (SF-295 CNS) was > 100 µM, the TGI (SF-539 CNS) was > 100 µM and the TGI (SK-MEL-2 melanoma) was > 100 µM. For the same compound, the TGI (SK-MEL-28 melanoma) was > 100 µM, the TGI (SK-MEL-5 melanoma) was > 100 µM and the TGI (SK-OV-3 ovarian) was > 100 µM. For the same compound, the TGI (SN12C renal) was > 100 µM, the TGI (SNB-19 CNS) was > 100 µM and the TGI (SNB-75 CNS) was > 100 µM. The TGI (SW-620 colon) was > 100 µM, the TGI (T-47D breast) was > 100 µM and the TGI (TK-10 renal) was > 100 µM. For the same compound, the TGI (U251 CNS) was > 100 µM, the TGI (UACC-257 melanoma) was > 100 µM and the TGI (UACC-62 melanoma) was > 100 µM. The TGI (UO-31 renal) was > 100 µM.

For `CC(=O)Nc1ccc2c3c(cc(O)c2c1)N(C(=O)CCCCCC(=O)N1CC(CCl)c2c1cc(O)c1cc(NC(C)=O)ccc21)CC3CCl` (centres undefined), the TGI (786-0 renal) was 0.0412 µM, the TGI (BT-549 breast) was 0.0736 µM and the TGI (CAKI-1 renal) was 0.918 µM. It also gave a TGI (DU-145 prostate) of 0.0392 µM, a TGI (EKVX NSCLC) of 0.803 µM and a TGI (HCT-15 colon) of 14.2 µM. The TGI (HL-60(TB) leukemia) was 26 µM, the TGI (HOP-62 NSCLC) was > 100 µM and the TGI (HOP-92 NSCLC) was 0.0392 µM. For the same compound, the TGI (HT29 colon) was > 33.3 µM, the TGI (IGROV1 ovarian) was > 87.2 µM and the TGI (K-562 leukemia) was > 100 µM. For the same compound, the TGI (KM12 colon) was 0.636 µM, the TGI (LOX IMVI melanoma) was > 100 µM and the TGI (M14 melanoma) was 0.125 µM. For the same compound, the TGI (MALME-3M melanoma) was 0.0654 µM, the TGI (MDA-MB-231 breast) was 0.0503 µM and the TGI (MDA-MB-435) was 0.187 µM. The TGI (MDA-N) was 0.085 µM, the TGI (NCI-H226 lung) was 0.0915 µM and the TGI (NCI-H460 lung) was > 100 µM. The TGI (NCI/ADR-RES ovarian) was > 100 µM, the TGI (OVCAR-5 ovarian) was 13.3 µM and the TGI (PC-3 prostate) was 1.8 µM. The TGI (SF-295 CNS) was > 100 µM, the TGI (SF-539 CNS) was 0.205 µM and the TGI (SK-MEL-28 melanoma) was > 100 µM. The TGI (SK-MEL-5 melanoma) was 0.0198 µM, the TGI (SK-OV-3 ovarian) was > 100 µM and the TGI (SNB-19 CNS) was > 100 µM. The TGI (SW-620 colon) was > 100 µM, the TGI (T-47D breast) was 0.02 µM and the TGI (TK-10 renal) was > 100 µM. The TGI (UACC-62 melanoma) was 0.0248 µM.
